# Experimental data as given in patent US10913732B2, “Furoxans as therapies for neurodegenerative disorders” (The University of Toledo, priority 2016, dated 2021).
# Tests used:
# [1] = test system: PC12 cells; assay: In vitro neuroprotection against oxygen glucose deprivation (OGD), MTT viability readout; format: cell-based; details: OGD 90 min, reoxygenation, furoxan 1, 10 or 25 μM, 24 hr
# Experimental: FIGS. 3A-3C: Neuroprotection (FIG. 3A), MTT treatment was used to assess cell viability (FIG. 3B), and pCREB modulation (FIG. 3C) of furoxan compounds. Neuroprotection assay workflow: expose PC12 cells to oxygen glucose deprivation (OGD) for 90 min→reoxygenate and add furoxan (1, 10, or 25 μM)→incubate for 24 hr→MTT readout of viability. Data represented as mean and s.e.m. (n=3). *=p<0.05, **=p<0.01, ***=p<0.001 compared to vehicle control using one way ANOVA analysis with Dunnett's post-hoc test. Red dashed line indicates threshold of vehicle effects. For pCREB modulation, 31b (25 μM) was examined (PC-12 cells, 48 hr incubation) in the following: without insult, with OGD, L-NAME.
# It has been shown that furoxans are protective against oxygen glucose deprivation (OGD), a commonly used cellular model of ischemic stroke. PC12 cells were submitted to OGD for 90 minutes followed by reoxygenation and treatment with varying concentrations of selected embodiments of compounds of Formula I (indicated in FIG. 3A). After 24 hr, MTT treatment was used to assess cell viability (FIG. 3B). […] It has been shown previously that 4-N-oxides release NO at a much slower rate than corresponding 2-N-oxides.
# [2] = test system: Male C57BL/6 mice; assay: Step-through passive avoidance (STPA), scopolamine-induced amnesia; format: in vivo; details: scopolamine 1 mg/kg i.p. alone (vehicle treated: 270 s±30 s), 24 hr after training
# Experimental: FIGS. 4A-4B: STPA experimental timeline (FIG. 4A), and results of Male C57BL/6 mice administered either vehicle or 31b via i.p. injection at 60 min or 120 min prior to training in STPA (FIG. 4B). […] Memory retention was measured as latency to enter the dark compartment 24 h after training. Data represented as mean and s.e.m.
# The STPA apparatus consisted of an acrylic box with an illuminated compartment connected to a darkened compartment by a small guillotine door. Mice were placed in the illuminated side and were trained against their natural tendency to translocate to the dark side using an aversive stimulus (shock via electrified floor grading). Memory consolidation is measured as the latency times to enter the dark compartment 24 hr after training.
# All procedures were performed under the approved IACUC protocol #108451. Male C57BL/6 mice (Envigo), N=9 per group, were habituated at the animal facility for at least 14 days. Ear tags were applied and animals weighed. 2 hr prior to the drug adminstration the mice were individually acclimated to the illuminated compartment to assess tendency to enter the dark chamber (measured in seconds). In this phase no shock was be delivered. […] The mice were then administered either vehicle (95 [0.9% NaCl]:5 [DMSO]) or 31b (0.1, 1, 10, or 20 mg/kg) via i.p. injection (50 μL) at 1 h or 2 h prior to training. […] Mice were individually placed into the light compartment and upon translocation to the dark compartment the guiltine door closed and the mice were trained by delivering a mild adversive stimulus (0.5 mA) via the electrified floor grading of the dark chamber. Each mouse was held in the dark chamber for 30 seconds, then returned to their cage for 120 seconds before the second training session. […] Memory retention was measured 24 hours after training by placing the same mouse in the light chamber and measuring latency to enter the dark chamber (no aversive stimulus is delivered during the retention test). Data was analyzed by one way ANOVA analysis with Dunnett's post-hoc test.
SMILES,Neuroprotection against OGD (cell viability by MTT) [1],Latency to enter the dark compartment [2] [s]
CC1CCN(Cc2no[n+]([O-])c2-c2ccc(Br)cc2)CC1 [33b],outperform the corresponding 2-N-oxides,–
"CC1CCN(Cc2no[n+]([O-])c2-c2ccc(OC(F)(F)F)cc2)CC1 [37b, 4-((4-methylpiperidin-1-yl)methyl)-3-(4-(trifluoromethoxy)phenyl)-1,2,5-oxadiazole 2-oxide]",outperform the corresponding 2-N-oxides,–
"Cc1ccc(-c2c(CN3CCC(C)CC3)no[n+]2[O-])cc1 [38b, 4-((4-methylpiperdin-1-yl)methyl)-3-(p-tolyl)-1,2,5-oxadiazole 2-oxide]",outperform the corresponding 2-N-oxides,–
[2H]C1([2H])CC(C)CC([2H])([2H])N1Cc1no[n+]([O-])c1-c1ccc(F)cc1 [41b],outperform the corresponding 2-N-oxides,–
"CN1[C@@H]2C[C@@H](OC(=O)[C@H](CO)c3ccccc3)C[C@H]1[C@@H]1O[C@@H]12 [Scopolamine, reference compound]",–,63.5
